Assay results from PMC10447463, “Data-mining unveils structure–property–activity correlation of viral infectivity enhancing self-assembling peptides” (Nature Communications, 2023).
Several values for one entry are separate records, joined by “and”; a condition that tells them apart may be missing. Identical values can stand only once. Like-named read-outs stand apart in the source and are kept apart here.

How the values were obtained:
[1] = Turbidity, derived count rate of scattered light; format: physicochemical; settings: for Count Rate: derived count rate of scattered light (turbidity); for Log10 Count Rate: turbidity, derived count rate of scattered light, data of Figure 2D
[2] = Turbidity, derived count rate of scattered light; format: physicochemical; settings: for Count Rate / kcps: derived count rate of scattered light at 633 nm, 173°, from zeta-potential measurement, 0.1 mg/mL in 1 mM KCl after 1 d at 1 mg/mL in PBS, turbidity / microscopic aggregation, mean of triplicate
How it was run: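 Samples: 1 mg/mL in PBS pH 7.4 (from DMSO), 1 d at RT, then diluted in 1 mM KCl immediately before measurement. Triplicates, two independent runs averaged.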

[3] = format: physicochemical; set-up: key to Fibril / Fibril Formation / TEM 2cat / Fibril: 1 = fibrils present; 0 non-fibrillar structures; settings: for Fibril / Fibril Formation: 1 mg/mL, uranyl acetate stain, qualitative
[4] = Log10 of derived count rate of scattered light (turbidity)
[5] = log10 of derived count rate of scattered light (turbidity)
[6] = logarithm of count rate in kcps
[7] = turbidity, Log10 of derived count rate of scattered light, Figure 3A source data
[8] = Fig S10 panel D, fibril category by TEM
[9] = TEM, 1 = fibrils present, 0 = non-fibrillar
[10] = TEM, 1 = fibrils present, 0 = non-fibrillar structures
[11] = category: fibrils present or non-fibrillar
[12] = FigS12 panel A, fibril category by TEM

Substance	Count Rate [1]	Log10 Count Rate [1]	Log10 Count Rate [2, 4]	Count Rate / kcps [2]	Log10 Count Rate [2, 5]	Log10 Count Rate [2, 6]	Zeta Count Rate ([2]; peptides with TEM 2cat 0)	Log10 Count Rate [2, 7]	TEM 2cat [3, 8]	Fibril / Fibril Formation ([3]; TEM)	Fibril [3, 9]	Fibril [3, 10]	TEM 2cat [3, 11]	Fibril ([3]; Fig S10 panel E)	TEM 2cat [3, 12]	Fibril ([3]; FigS12 panel B, TEM)	Zeta Count Rate ([2]; mean of the 3 replicates)	Zeta Count Rate ([2]; replicate 2)	Zeta Count Rate ([2]; replicate 3)
HHHHKIKIKIKIYYYY	12792.53333	4.107	4.107	12793 kcps	4.107	4.107	12793 kcp	4.107	0	0	0	0	0	–	–	–	–	–	–
ILKNLSRSRKIKIQIC	2392	3.379	3.379	2392 kcps	3.379	–	–	3.379	1	1	1	1	1	–	–	–	–	–	–
RGDSKIKIQIC	2699	3.431	3.431	2699 kcps	3.431	–	–	3.431	1	1	1	1	1	1	–	–	–	–	–
HHHHKIKIKIKIWWWW	23756.66667	4.376	4.376	23757 kcps	4.376	4.376	23757 kcp	4.376	0	0	0	0	0	0	–	–	–	–	–
KIKIQIMWNQ	1887	3.2757	3.2757	1887 kcps	3.2757	–	–	3.2757	1	1	1	1	1	–	–	–	–	–	–
CKIKIQINMW	4915	3.692	3.692	4915 kcps	3.692	–	–	3.692	1	1	1	1	1	–	–	–	–	–	–
KIKIKIQI	999.1	3	3	999 kcps	3	–	–	3	1	1	1	1	–	1	1	1	–	–	–
RGDKIKIQINMC	1404	3.147	3.147	1404 kcps	3.147	–	–	3.147	–	1	1	1	1	–	–	–	–	–	–
EIEIQINM	134	2.127	2.127	134 kcps	2.127	–	–	2.127	1	1	1	1	–	1	1	1	–	–	–
ILKNLSRSRKIKIQINMWQ	306.5	2.486	2.486	307 kcps	2.486	–	–	2.486	1	1	1	1	1	–	–	–	–	–	–
KIKIQINMWWQ	3893	3.59	3.59	3893 kcps	3.59	–	3893 kcp	3.59	0	0	0	0	0	–	–	–	–	–	–
IKVAVKIKIQINM	4848	3.686	3.686	4848 kcps	3.686	–	–	3.686	1	1	1	1	1	–	–	–	–	–	–
MKIKIQINMWQ	1475	3.169	3.169	1475 kcps	3.169	–	–	3.169	1	1	1	1	1	–	–	–	–	–	–
KIKIQINMWWWQ	7596.3	3.8806	3.8806	7596 kcps	3.8806	–	7596 kcp	3.8806	0	0	0	0	0	–	–	–	–	–	–
KVKVQVVV	163.1	2.213	2.213	163 kcps	2.213	–	–	2.213	1	1	1	1	–	–	1	1	–	–	–
KIKIQIMQWN	2202.7	3.343	3.343	2203 kcps	3.343	–	–	3.343	1	1	1	1	1	–	–	–	–	–	–
CKIKIQI	2432.9	3.386	3.386	2432 ± 1342 kcps and 2433 kcps	3.386	3.386	–	3.386	1	1	1	1	1	1	–	–	2432.9 kcps	1640.5 kcps	4323.3 kcps
RGDCKFKFQF	1338	3.1264	3.1264	1338 kcps	3.1264	–	–	3.1264	1	1	1	1	1	1	–	–	–	–	–
MKIKIQINM	981.3	2.9918	2.9918	981 kcps	2.9918	–	–	2.9918	1	1	1	1	1	–	–	–	–	–	–
EIKIQINM	2816	3.45	3.45	2816 kcps	3.45	–	–	3.45	1	1	1	1	–	1	1	1	–	–	–
CKIKQII	74.6	1.873	1.873	74 ± 27 kcps and 75 kcps	1.873	1.873	–	1.873	1	1	1	1	–	1	1	1	–	–	–
KIKIKIQINMWQ	1603.1	3.205	3.205	1603 kcps	3.205	–	–	3.205	1	1	1	1	1	–	–	–	–	–	–
KIKIQIRGD	114	2.057	2.057	114 kcps	2.057	–	–	2.057	1	1	1	1	–	–	1	1	–	–	–
